In ChEMBL document CHEMBL1127522, “[L-Ala3]DPDPE: a new enkephalin analog with a unique opioid receptor activity profile. Further evidence of delta-opioid receptor multiplicity” (J Med Chem, 1994) one finds IC50 data, which are given here for three compounds.

The target in one assay is Mu-type opioid receptor (Rattus norvegicus, UniProt P33535). Description: Evaluation for the binding affinity by competitive inhibition of [3H]- CTOP binding.
Assay [1] addresses Delta-type opioid receptor (Rattus norvegicus, UniProt P33533). Description: Evaluation for the binding affinity by competitive inhibition of [3H]- p-chloro DPDPE binding.
Assay [2] has as its target Delta-type opioid receptor (Mus musculus, UniProt P32300). Description: Inhibitory activity of the electrically induced smooth muscle contraction of mouse vas deferens. In kind it is functional, tissue-based.

As a reminder, the IC50 is the midpoint of a concentration-inhibition curve. Low values mean greater potency in that assay, high ones weaker potency in that assay.

Molecules are shown by their SMILES. Bridge positions count the residues as written; N and C are the ends. Square brackets hold non-standard residues; d marks the D form. Peptide text beside a SMILES is read from it. dPen = CC(C)(S)[C@@H](N)C(=O)O; dAbu = CC[C@@H](N)C(=O)O

Sequence of Mu-type opioid receptor (P33535 whole entry): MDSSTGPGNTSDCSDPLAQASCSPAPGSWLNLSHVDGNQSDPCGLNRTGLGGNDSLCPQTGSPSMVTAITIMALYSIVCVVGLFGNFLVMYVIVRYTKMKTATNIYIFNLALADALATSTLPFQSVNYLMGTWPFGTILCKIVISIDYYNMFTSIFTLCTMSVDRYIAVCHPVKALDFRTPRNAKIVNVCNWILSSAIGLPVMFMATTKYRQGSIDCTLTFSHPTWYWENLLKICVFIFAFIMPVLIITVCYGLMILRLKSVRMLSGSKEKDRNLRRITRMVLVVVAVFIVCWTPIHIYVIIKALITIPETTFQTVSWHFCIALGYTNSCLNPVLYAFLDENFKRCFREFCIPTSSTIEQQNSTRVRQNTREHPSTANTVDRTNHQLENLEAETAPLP
Sequence of Delta-type opioid receptor (Rattus norvegicus, UniProt P33533) (P33533 whole entry): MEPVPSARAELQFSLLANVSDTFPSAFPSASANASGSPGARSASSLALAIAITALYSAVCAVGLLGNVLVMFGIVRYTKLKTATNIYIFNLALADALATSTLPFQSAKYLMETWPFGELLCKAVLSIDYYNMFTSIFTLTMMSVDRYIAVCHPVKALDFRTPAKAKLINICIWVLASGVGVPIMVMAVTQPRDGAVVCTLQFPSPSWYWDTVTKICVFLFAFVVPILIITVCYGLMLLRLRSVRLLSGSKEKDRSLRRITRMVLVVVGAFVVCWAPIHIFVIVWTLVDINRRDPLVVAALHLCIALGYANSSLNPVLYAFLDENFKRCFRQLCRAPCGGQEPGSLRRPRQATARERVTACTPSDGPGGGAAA
Sequence of Delta-type opioid receptor (Mus musculus, UniProt P32300) (P32300 whole entry): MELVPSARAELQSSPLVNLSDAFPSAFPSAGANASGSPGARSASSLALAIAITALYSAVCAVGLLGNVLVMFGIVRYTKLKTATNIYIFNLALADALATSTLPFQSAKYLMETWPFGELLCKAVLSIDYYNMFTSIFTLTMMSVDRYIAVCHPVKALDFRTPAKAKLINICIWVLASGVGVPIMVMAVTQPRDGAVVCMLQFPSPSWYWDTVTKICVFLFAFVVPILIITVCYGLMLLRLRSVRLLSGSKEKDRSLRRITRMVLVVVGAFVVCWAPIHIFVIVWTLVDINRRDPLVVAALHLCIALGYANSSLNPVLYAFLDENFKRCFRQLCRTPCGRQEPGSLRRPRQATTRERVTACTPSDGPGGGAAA

At Mu-type opioid receptor, `CC1(C)SSC(C)(C)[C@@H](NC(=O)[C@@H](N)Cc2ccc(O)cc2)C(=O)N[C@@H](CO)C(=O)N[C@@H](Cc2ccccc2)C(=O)N[C@H]1C(=O)O` (H-Y[dPen]SF[dPen]-OH; disulfide 2-5) displayed an IC50 above 22.5 µM.

Take `CC[C@H]1NC(=O)[C@H](NC(=O)[C@@H](N)Cc2ccc(O)cc2)C(C)(C)SSC(C)(C)[C@H](C(=O)O)NC(=O)[C@H](Cc2ccccc2)NC1=O` (H-Y[dPen][dAbu]F[dPen]-OH; disulfide 2-5): the IC50 is 2.5 µM in assay [1] and above 50 µM at Mu-type opioid receptor.

For `CC1(C)SSC(C)(C)[C@@H](NC(=O)[C@@H](N)Cc2ccc(O)cc2)C(=O)N[C@H](CO)C(=O)N[C@@H](Cc2ccccc2)C(=O)N[C@H]1C(=O)O` (H-Y[dPen][dS]F[dPen]-OH; disulfide 2-5), the IC50 at Mu-type opioid receptor was above 50 µM; in assay [2], 1.3 µM.
